For test [1], the system named is Full-thickness excision wounds on the underside of the wings of 2-week-old chicks. Description: Wounding experiment: closure of excision wounds. Format: in vivo, chicken. Particulars: 1 μg every other day, topical; versus vehicle (H2O) on contralateral wing. As for the experimental part:
Full-thickness excision wounds (approximately 0.5×0.5 cm) were made, using a scalpel blade, on the underside of the wings of 2-week-old chicks. The left wing was treated with vehicle alone (water), and the right wing with […] cCAF [90 nM]. The wounds were photographed immediately after wounding and then covered with Biocclusive bandage. 50 μl vehicle (water) or cCAF was deposited through the bandage onto the wound using a 30-gauge needle. This procedure was repeated the next day and every other day thereafter. On days 3, 5 and 7, the bandages were removed and the wounds were photographed before replacing the bandages and applying the treatment again.

In test [2] the test system is α-SMA. The experiment in a line: Immunoblotting for α-SMA in fibroblast extracts. Format: cell-based, chicken. As for the experimental part:
Plates of fibroblasts were treated as described previously, with 750 ng/ml cCAF or 2.5 ng/ml TGFβ. To block TGFβ, or cCAF activity, anti-cCAF (3 μl) or anti-TGFβ (1 μl) antibody was pre-incubated in 1 ml media for 1 hr at room temperature before being added to cells. After 4 days of treatment, protein extracts were prepared in 1 ml 150 mM RIPA buffer containing protease inhibitors. Protein concentrations were determined using the DC protein assay kit and samples were adjusted to contain equal amounts of protein. SDS-PAGE was performed on 7.5% separating Doucet gels (Doucet and Trifaro, 1988). Protein transfer to nitrocellulose was performed using a wet-transfer apparatus (Bio-Rad) at 100V for 45 min. The membranes were blocked for 1 hr in 5% milk in TTBS and then incubated overnight at 4° C. in mouse anti-α-SMA, to a final IgG concentration of 5 μg/ml, in 1% milk in TTBS. The membranes were washed 3 times for 20 min each with TTBS, incubated in anti-mouse HRP at 1:10,000 in 1% milk for 1hr and washed as above, and the bands visualized using the ECL.

The subject of test [3] is fibroblast-seeded collagen gels. The experiment in a line: Collagen gel contraction by fibroblasts. Format: cell-based, chicken. As for the experimental part:
1.5 ml Vitrogen 100 collagen gels were made in 35 mm plates. Secondary fibroblasts were plated at 0.4×10^6 cells/35 mm plate on top of the gels. After the cells had adhered to the collagen, cCAF was added to experimental plates. The medium was replaced approximately every 16 hr with 1 ml of 199 supplemented with 0.3% tryptose phosphate broth and 2% donor calf serum, and 750 ng cCAF [68 nM] or N-peptide [480 nM] was added to the experimental plates. Control plates contained media only. After 4 days, gels were released. Treatment was continued for 2 more days and gels were photographed every 12 hours. The photographs were used for evaluation of gel contraction by determining the area of the gel using NIH image analysis.

The test system of test [4] is chicken CXC receptor 1 (CXCR1). The experiment in a line: Chicken cCXCR1-mediated calcium release. Format: cell-based. The following applies: NIH #373 cells overexpressing chicken CXCR1. As for the experimental part: NIH #373 cells overexpressing the chicken CXC receptor 1 (CXCR1) were exposed to the full-length cCAF molecule, the 15-amino N-terminal peptide of cCAF, or the 28-amino acid C-terminal peptide and calcium release was then measured.

The test system of test [5] is α-SMA. Description: Immunostaining for α-SMA in fibroblast cultures and collagen gel sections. Format: cell-based, chicken. The following applies: versus control gels. Here is the method: Plates of fibroblasts were treated with cCAF as described previously. After 4 days, the cells were rinsed with PBS, fixed in 4% paraformaldehyde, permeabilized with 0.15% Triton X-100 and incubated with PBS containing 0.1M glycine for 10 min. Cells were blocked for 30 min with 10% goat serum in PBS, incubated with mouse anti-α-SMA, to a final IgG concentration of 20 μg/ml, in 1% BSA/PBS for 1hr at room temperature (RT), and washed three times with 0.1% BSA/PBS for 10 min each. The cells were then incubated in goat anti-mouse FITC or sheep anti-mouse Texas Red (1:100) in 1% BSA/PBS for 1 hr at RT, washed three times for 10 min with 0.1% BSA in PBS and mounted with Vectashield. Collagen gels were rinsed with PBS, fixed in 4% paraformaldehyde for 2 hr, washed three times 30 min each with PBS, and incubated for an additional 30 min in PBS containing 0.1M glycine. This treatment was followed by incubation at 4° C. overnight in 15% sucrose and then incubated under the same conditions in 30% sucrose. After a brief rinse with PBS, the gels were frozen in OCT, sections prepared and collected on gelatin-coated slides, rinsed with PBS, fixed in 4% paraformaldehyde for 10 min, and then incubated again in PBS containing 0.1M glycine for 10 min. This was followed by blocking for 30 min with 10% goat serum in PBS, incubation in primary and secondary antibody as described above, and mounting with Vectashield.

Test [6] deals with primary chicken embryonic connective tissue fibroblasts. Description: Fibroblast growth assay. Particulars: for effect on fibroblast growth / cell numbers: 3 days treatment, 2% donor calf serum. Format: cell-based. As for the experimental part:
Primary chicken embryonic connective tissue fibroblasts (CEFs) were cultured as previously described in Martins-Green and Feugate (1998). Briefly, these fibroblasts were isolated from 10-day-old chicken embryo body walls, plated at 6×10^6 cells/100 mm plate and cultured for 4 days in 199 medium with 5% donor calf serum, 1% chick serum and 0.3% tryptose phosphate broth. These cultures were passaged once (secondary cultures); the cells were plated at 0.4×10^6 cells/35 mm plate in 199/tryptose phosphate broth and 2% donor calf serum.
Secondary fibroblasts were plated at 0.4×10^6 cells/35 mm plate and cCAF was added to experimental plates. For each experiment, plating efficiency was determined by trypsinizing plates four hours after plating. Cells were counted with a Coulter particle counter to confirm even plating of cells. The media was replaced approximately every 16 hr with 1 ml of […] 199 medium containing 0.3% tryptose phosphate broth and 2% donor calf serum, and 100-1000 ng cCAF [9-90 nM] or C- or N-peptide [64-640 nM] was added to the experimental plates, whereas, control plates contained media only. On day 3, plates were trypsinized to remove all cells and cells were counted using a Coulter counter. To test for specificity, anti-cCAF rabbit serum was pre-incubated with cCAF (3 μl serum/750 ng cCAF [68 nM] or N-peptide [480 nM]) for 1 hr at room temperature before being added to cells.

The next test concerns fibroblasts. Description: Induction of differentiation of fibroblasts to myofibroblasts by IL-8 forms. The test is classed as cell-based. The following applies: IL-8-77 versus IL-8-72.
Test [7] deals with chicken chorioallantoic membrane (CAM). The following applies: in vivo; cited from earlier work.

Entries after “also recorded” stand apart in the source; their conditions may differ.

As to “LSQGRTLVKMGNELR (Gallusgallus) [N-peptide, 15-amino acid N-terminal peptide of cCAF]”, in test [1], the “wound closure at day 3 (days 0-3)” value is “accelerated wound closure during days 0-3, albeit less strongly than with the whole cCAF molecule”. In addition, the “α-SMA levels by immunoblot” value in the test with α-SMA [2] (750 ng/ml, versus untreated or C-peptide treated cells) is “much higher levels of α-SMA; also recorded: increased levels of α-SMA”. Also, the “contraction of collagen gels after release” value in test [3] (750 ng/ml, 4-5 days treatment before release, versus untreated cells) was “much greater contraction; also recorded: stimulated fibroblasts to contract collagen gels more efficiently than untreated cells; also recorded: contracted the gels more tightly than did untreated cells”. The “contraction of fibroblast clusters on collagen” value in test [3] (versus control cells) was “form clusters that are much tighter and generally pull away from the collagen; also recorded: more contracted than clusters in control cells”. Moreover, the calcium release result in test [4] (400 ng) was “similar, albeit somewhat slower, release”. For the same substance, in the test on α-SMA [5], the “α-SMA immunolabeling of sections of fibroblast-seeded collagen gels” value is “more cells with fibers staining for α-SMA than control gels”. Moreover, the “effect on fibroblast growth / cell numbers” value in test [6] is “suppresses the growth of fibroblasts to a level similar to that caused by the whole cCAF molecule; also recorded: decrease in growth similar to that induced by cCAF”. Further, the “dose- and time-dependent pattern of suppression of growth” value in test [6] (compared with whole cCAF, not shown) is “same as that of the whole cCAF molecule, albeit at a higher molar concentration”.
Consider “TGFβ: Transforming Growth Factorβ-1, known stimulator of myofibroblast differentiation [reference compound]”, for which the “α-SMA expression after TGFβ treatment” value in the test on α-SMA [2] (2.5 ng/ml) was “stimulation of α-SMA”.
As for “IL-8-77: 77-residue form of human interleukin-8, SEQ ID NO:4”, the “potency at inducing differentiation of fibroblasts to myofibroblasts, relative to the other IL-8 form” value in the test with fibroblasts is listed as “more potent at inducing differentiation of fibroblasts to myofibroblasts”.
For “C-peptide: 28-amino acid peptide extending from residues 59-86 of cCAF (SEQ ID NO:2) (CLDPTAPWVQLIVKALMAKAQLNSDAPL; Gallusgallus) [reference compound]”, the calcium release result is “failed to induce calcium release” in test [4] (400 ng) and “release of calcium that was similar in magnitude, but differed in time course from the N-peptide-induced release” in test [4] (800 ng). Moreover, the “angiogenic activity of the peptide by itself” value in test [7] is on record as “angiogenic in vivo”. In addition, the figures for the “effect on fibroblast growth / cell numbers” value in test [6] and in test [6] (listed as C-terminal peptide) were “did not suppress the growth of connective tissue fibroblasts” and “did not cause a decrease in cell numbers”, respectively.
